{"source": "patent US7176195B2", "about": "“Fused azepine derivatives and their use as antidiuretic agents” (Ferring BV, priority 2000, dated 2007)"}
{"biological_target": "V2 receptor (Homo sapiens, UniProt P30518)", "sequence (P30518 whole entry)": "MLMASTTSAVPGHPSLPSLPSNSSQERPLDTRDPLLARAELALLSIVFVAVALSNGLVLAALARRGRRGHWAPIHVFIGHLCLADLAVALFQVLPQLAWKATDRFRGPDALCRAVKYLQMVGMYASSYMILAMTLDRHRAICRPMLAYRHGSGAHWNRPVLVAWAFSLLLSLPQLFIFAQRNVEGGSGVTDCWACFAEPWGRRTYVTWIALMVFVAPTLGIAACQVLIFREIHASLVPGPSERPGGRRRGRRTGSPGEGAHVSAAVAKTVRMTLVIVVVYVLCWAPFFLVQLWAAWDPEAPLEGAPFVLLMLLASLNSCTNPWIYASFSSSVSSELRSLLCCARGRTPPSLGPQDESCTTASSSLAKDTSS", "experiment": "Determination of V2 receptor agonist activity in vitro (cellular activation)", "type": "cell-based", "details": "concentration of compound necessary to cause a half-maximal cellular activation", "procedure": "Determination of V2r Ceptor Agonist Activity in Vitro\nAgonist activity was determined for all compounds and is reported as an EC50 value, being that concentration of compound necessary to cause a half-maximal cellular activation.", "units": {"EC50": "nM"}}
{"compound": "O=C(NCc1ccc(C(=O)N2CCCCc3ccccc32)cc1)Nc1c(F)cccc1F", "note": "[Example 1, 1-(4-[3-(2,6-Difluorophenyl)ureidomethyl]benzoyl)-2,3,4,5-tetrahydro-1H-1-benzazepine]", "EC50": 39}
{"compound": "N#C/N=C(\\NCc1ccc(C(=O)N2CCCCc3ccccc32)cc1)Nc1c(F)cccc1F", "note": "[Example 2, 1-(4-[3-(2,6-Difluorophenyl)cyanoguanidinomethyl]benzoyl)-2,3,4,5-tetrahydro-1H-1-benzazepine]", "EC50": 160}
{"compound": "O=C(NCc1ccc(C(=O)N2CCCCc3ccccc32)cn1)Nc1c(F)cccc1F", "note": "[Example 3, 1-(6-[3-(2,6-Difluorophenyl)ureidomethyl]nicotinoyl)-2,3,4,5-tetrahydro-1H-1-benzazepine]", "EC50": 300}
{"compound": "COc1cccc(NC(=O)NCc2ccc(C(=O)N3CCCCc4ccccc43)cc2Cl)c1", "note": "[Example 4, 1-(3-Chloro-4-[3-(3-methoxyphenyl)ureidomethyl]benzoyl)-2,3,4,5-tetrahydro-1H-1-benzazepine]", "EC50": 300}
{"compound": "O=C(NCc1ccc(C(=O)N2CCCCc3ccccc32)cc1Cl)Nc1ccccc1Cl", "note": "[Example 5, 1-(3-Chloro-4-[3-(2-chloropheny)ureidomethyl]benzoyl)-2,3,4,5-tetrahydro-1H-1-benzazepine]", "EC50": 150}
{"compound": "O=C(c1ccc(CNC(=S)Nc2c(F)cccc2F)c(Cl)c1)N1CCCCc2ccccc21", "note": "[Example 6, 1-(3-Chloro-4-[3-(2,6-difluorophenyl)thioureidomethyl]benzoyl)-2,3,4,5-tetrahydro-1H-1-benzazepine]", "EC50": 47}
{"compound": "Cc1cc(CNC(=O)Nc2c(F)cccc2F)ccc1C(=O)N1CCCCc2ccccc21", "note": "[Example 7, 1-(4-[3-(2,6-Difluorophenyl)ureidomethyl]-2-methylbenzoyl)-2,3,4,5-tetrahydro-1H-1-benzazepine]", "EC50": 24}
{"compound": "Cc1cc(C(=O)N2CCCCc3ccccc32)ccc1CNC(=O)NS(=O)(=O)c1ccccc1", "note": "[Example 8, 1-(3-Methyl-4-[3-(phenylsulfonyl)ureidomethyl]benzoyl)-2,3,4,5-tetrahydro-1H-1-benzazepine]", "EC50": 220}
{"compound": "Cc1cc(C(=O)N2CCCCc3ccccc32)ccc1CNC(=O)Nc1ccc[nH]c1=O", "note": "[Example 9, 1-(3-Methyl-4-[3-(2-oxo-1,2-dihydropyrid-3-yl)ureidomethyl]benzoyl)-2,3,4,5-tetrahydro-1H-1-benzazepine]", "EC50": 50}
{"compound": "Cc1cc(C(=O)N2CCCCc3ccccc32)ccc1CNC(=O)Nc1c(F)cccc1F", "note": "[Example 10]", "EC50": 4}
{"compound": "O=C(c1ccc(CNS(=O)(=O)Cc2ccccc2[N+](=O)[O-])c([N+](=O)[O-])c1)N1CCCCc2ccccc21", "note": "[Example 11, 1-(3-Nitro-4-[2-nitrobenyzlsulfonylaminomethyl]benzoyl)-2,3,4,5-tetrahydro-1H-1-benzazepine]", "EC50": 21}
{"compound": "Nc1cc(C(=O)N2CCCCc3ccccc32)ccc1CNC(=O)Nc1c(F)cccc1F", "note": "[Example 12, 1-(3-Amino-4-[3-(2,6 difluorophenyl)ureidomethyl]benzoyl)-2,3,4,5-tetrahydro-1H-1-benzazepine]", "EC50": 50}
{"compound": "CN(C)c1cc(C(=O)N2CCCCc3ccccc32)ccc1CNC(=O)Nc1c(F)cccc1F", "note": "[Example 13, 1-(4-[3-(2,6-Difluorophenyl)ureldomethyl]-3-dimethylaminobenzoyl)-2,3,4,5-tetrahydro-1H-1-benzazepine]", "EC50": 38}
{"compound": "O=C(NCc1ccc(C(=O)N2CCCCc3ccccc32)c(F)c1)Nc1c(F)cccc1F", "note": "[Example 14, 1-(4-[3-(2,6-Difluorophenyl)ureidomethyl]-2-fluorobenzoyl)-2,3,4,5-tetrahydro-1H-1-benzazepine]", "EC50": 240}
{"compound": "Cc1cc(C(=O)N2CCCNc3ccccc32)ccc1CNC(=O)Nc1c(F)cccc1F", "note": "[Example 15, 1-(4-[3-(2,6-Difluorophenyl)ureidomethyl]-3-methylbenzoyl)-2,3,4,5-tetrahydro-1H-1,5-bezazepine]", "EC50": 44}
{"compound": "Cc1cc(C(=O)N2CCCN(Cc3cccnc3)c3ccccc32)ccc1CNC(=O)Nc1c(F)cccc1F", "note": "[Example 16, 1-(4-[3-(2,6-Difluorophenyl)ureidomethyl]-3-methylbenzoyl)-5-(3-pyridyl)methyl-2,3,4,5-tetrahydro-1H-1,5-benzodiazepine]", "EC50": 16}
{"compound": "Cc1cc(C(=O)N2CCCN(CCO)c3ccccc32)ccc1CNC(=O)Nc1c(F)cccc1F", "note": "[Example 17, 1-(4-[3-(2,6Difuorophenyl)ureidomethyl]-3-methylbenzoyl)-5-(2-hydroxyethyl)-2,3,4,5-tetrahydro-1H-1,5-benzodiazepine]", "EC50": 16}
{"compound": "CN1CCCN(C(=O)c2ccc(CNC(=O)Nc3c(F)cccc3F)c(Cl)c2)c2ccccc21", "note": "[Example 18, 1-(3-Chloro-4-[3-(2,6-difluorophenyl)ureidomethyl]benzoyl)-5-methyl-2,3,4,5-tetrahydro-1H-1,5-benzodiazepine]", "EC50": 17}
{"compound": "Cc1cc(CNC(=O)Nc2c(F)cccc2F)ccc1C(=O)N1CCCN(C)c2ccccc21", "note": "[Example 19, 1-(4-[3-(2,6-Difluorophenyl)uredomethyl]-2-methylbenzoyl)-5-methyl-2,3,4,5-tetrahydro-1H-1,5-benzodiazepine]", "EC50": 40}
{"compound": "Cc1cc(C(=O)N2CCCCc3ccccc32)cc(C)c1CNC(=O)Nc1c(F)cccc1F", "note": "[Example 20]", "EC50": 17}
{"compound": "O=C(NCc1ccc(C(=O)N2CCCCc3ccccc32)c(Cl)n1)Nc1c(F)cccc1F", "note": "[Example 21, 1-(2-Chloro-6-[3-(2,6-difluorophenyl)ureidomethyl]nicotinoyl)-2,3,4,5-tetrahydro-1H-1-benzazepine]", "EC50": 180}
{"compound": "Cn1c(CNC(=O)Nc2c(F)cccc2F)ccc(C(=O)N2CCCCc3ccccc32)c1=O", "note": "[Example 22, 1-(6-[3-(2,6-Difluorophenyl)ureidomethyl]-1-methyl-2-oxo-1,2-dihydropyridyl-3-carbonyl)-2,3,4,5-tetrahydro-1H-1-benzazepine]", "EC50": 1000}
{"compound": "CCN1CCCN(C(=O)c2ccc(CNC(=O)Nc3c(F)cccc3F)c(C)c2)c2ccccc21", "note": "[Example 23, 1-(4-[3-(2,6-Difluorophenyl)ureidomethyl]-3-methylbenzoyl)-5-ethyl-2,3,4,5-tetrahydro-1H-1,5-benzodiazepine]", "EC50": 40}
{"compound": "Cc1cc(C(=O)N2CCCCc3cccnc32)ccc1CNC(=O)Nc1c(F)cccc1F", "note": "[Example 24]", "EC50": 92}
{"compound": "Cc1cc(C(=O)N2CCC[S+]([O-])c3ccccc32)ccc1CNC(=O)Nc1c(F)cccc1F", "note": "(stereo not shown) [Example 25, 5-(4-[3-(2,6-Difluorophenyl)ureidomethyl]-3-methylbenzoyl)-1-oxo-1λ^4-2,3,4,5-tetrahydro-1,5-benzothiazepine]", "EC50": 280}
{"compound": "Cc1cc(C(=O)N2CCCCc3sccc32)ccc1CNC(=O)Nc1c(F)cccc1F", "note": "[Example 26, 4-(4-[3-(2,6-Difluorophenyl)ureidomethyl]-3-methylbenzoyl)-5,6,7,8-tetrahydro-4H-thieno[3,2-b]azepine]", "EC50": 10}
{"compound": "Cc1cc(C(=O)N2CCCCc3sccc32)ccc1CNC(=O)Nc1c(F)c(F)cc(F)c1F", "note": "[Example 27, 4-(3-Methyl-4-[3-(2,3,5,6-tetrafluorophenyl)ureidomethyl]benzoyl)-5,6,7,8-tetrahydro-4H-thieno[3,2-b]azepine]", "EC50": 23}
{"system": "Brattleboro rat", "experiment": "Determination of antidiuretic activity in vivo (urine output, Brattleboro rat)", "details": "Brattleboro rats, 1 mg/kg p.o. in methylcellulose, vs control animals", "procedure": "Determination of Antidiuretic Activity in Vivo\nThe Brattleboro rat is a recognised model for vasopressin deficiency (for a review see FD Grant, “Genetic models of vasopressin deficiency”, Exp. Physiol. 85, 203S–209S, 2000). […] Compounds of the invention were administered to Brattleboro rats (0.1–10 mg/kg p.o. in methylcellulose. Urine was callected hourly and volumes were compared with control animals. Animals had free access to food and water throughout the experiment. Representative results are given in Table S. Results for Desmopressin are given for comparison."}
{"compound": "CCOC(=O)CNC(=O)NCc1ccc(C(=O)N2CCCCc3ccccc32)cc1C", "note": "[Example 32, 1-(4-[N-(2-Ethoxy-2-oxoethylcarbamoyl)aminomethyl]-3-methylbenzoyl)-2,3,4,5-tetrahydro-1H-1-benzazepine]", "% inhibition of urine output (at 1 hour)": "74%"}
{"compound": "Cc1cc(C(=O)N2CCCCc3ccccc32)ccc1CNC(=O)NCC(=O)O", "note": "[Example 33, 1-(4-[N-(Carboxymethylcarbamoyl)aminomethyl]-3-methylbenzoyl)-2,3,4,5-tetrahydro-1H-1-benzazepine]", "% inhibition of urine output (at 1 hour)": "38%"}
{"compound": "Cc1cc(C(=O)N2CCCCc3ccccc32)ccc1CNC(=O)NCC(=O)N(C)C", "note": "[Example 35, 1-(4-[N-(2-Dimethylamino-2-oxoethylcarbamoyl)aminomethyl]-3-methylbenzoyl)-2,3,4,5-tetrahydro-1H-1-benzazepine]", "% inhibition of urine output (at 1 hour)": "45–82%"}
{"compound": "Cc1cc(C(=O)N2CCCCc3ccccc32)ccc1CNC(=O)N1CCC[C@H]1C(=O)N(C)C", "note": "[Example 39, 1-(2-Methyl-4-(2,3,4,5-tetrahydro-1-benzazepin-1-ylcarbonyl)benzylcarbamoyl)-L-proline-N,N-dimethylamide]", "% inhibition of urine output (at 1 hour)": "82%"}
